Assay results: patent publication US10238667B2, “Vitamin D receptor/SMAD genomic circuit gates fibrotic response” (Salk Institute for Biological Studies, priority 2013, dated 2019)

Tested on: primary rat HSCs
Assay: Microarray expression profiling of TGFβ1 and TGFβ1+1,25(OH)2D3-treated HSCs
Type: cell-based
Source text: VDR Signaling Suppresses TGFβ-induced Pro-Fibrotic Genes. […] Euclidean clustering of both rows and columns using log2 transformed microarray expression data, n=2 per treatment group. […] Data represents the mean±SEM of at least three independent experiments performed in triplicate. Asterisks denote statistically significant differences (Student's unpaired t-test, *p<0.05, **p<0.01). HSCs were isolated from 10-week old male C57BL/6J mice and Wistar rats by in situ pronase, collagenase perfusion and single-step Histogenz gradient as previously reported (Hendriks et al., 1985; Knook et al., 1982). Isolated HSCs were cultured in DMEM (Mediatech) containing 20% FBS (Hyclone) on 6-well plates for 40 hours prior to end-point assays. Total RNA from primary rat or mouse HSCs was isolated using the RNeasy mini kit (Qiagen) according to standard protocols. RNA integrity and quality was assessed using the Agilent Bioanalyzer and prepared for hybridization to Illumina rat or mouse gene expression arrays according to standard Illumina protocols. Feature extraction was performed using the Illumina GenomeStudio software. Normalization and identification of differentially expressed genes from biological duplicates was performed using […] at http://sasquatch.ucsd.edu/vampire/.

Q: Which results are given for `C=C1/C(=C\C=C2/CCC[C@]3(C)C([C@H](C)CCCC(C)(C)O)CC[C@@H]23)C[C@@H](O)C[C@@H]1O` (stereo partly drawn) [1,25(OH)2D3, 1α,25 dihydroxyvitamin D3]?
A: TGFβ1 induced genes (1,25(OH)2D3 co-treatment with TGFβ1): considerable repression; Mmp13 VitD + TGF β Avg Signal (TGFβ1 1 ng/ml + 1,25(OH)2D3 100 nM, 24 h, Control 150.8, TGFβ 202.4): 180.0; Col4a2 VitD + TGF β Avg Signal (TGFβ1 1 ng/ml + 1,25(OH)2D3 100 nM, 24 h, Control 162.6, TGFβ 225.3): 166.2; Itga7 VitD + TGF β Avg Signal (TGFβ1 1 ng/ml + 1,25(OH)2D3 100 nM, 24 h, Control 170.2, TGFβ 202.7): 161.9; Col16a1 VitD + TGF β Avg Signal (TGFβ1 1 ng/ml + 1,25(OH)2D3 100 nM, 24 h, Control 175.4, TGFβ 237.2): 173.3; Col7a1 VitD + TGF β Avg Signal (TGFβ1 1 ng/ml + 1,25(OH)2D3 100 nM, 24 h, Control 185.8, TGFβ 229.6): 190.3; Itga2 VitD + TGF β Avg Signal (TGFβ1 1 ng/ml + 1,25(OH)2D3 100 nM, 24 h, Control 188.5, TGFβ 257.9): 204.2; LOC366205 VitD + TGFbeta AVG signal (TGFβ1 1 ng/ml + 1,25(OH)2D3 100 nM, 24 h, Control 193.2, TGFβ 926.6): 140.7; Tgfb3 VitD + TGF β Avg Signal (TGFβ1 1 ng/ml + 1,25(OH)2D3 100 nM, 24 h, Control 226.4, TGFβ 288.5): 178.6; LOC499272 VitD + TGFbeta AVG signal (TGFβ1 1 ng/ml + 1,25(OH)2D3 100 nM, 24 h, Control 234.2, TGFβ 620): 140.2; LOC497796 VitD + TGFbeta AVG signal (TGFβ1 1 ng/ml + 1,25(OH)2D3 100 nM, 24 h, Control 240.8, TGFβ 4341): 859; Col15a1 VitD + TGF β Avg Signal (TGFβ1 1 ng/ml + 1,25(OH)2D3 100 nM, 24 h, Control 257.9, TGFβ 616.4): 396.9; Ly49si1 VitD + TGFbeta AVG signal (TGFβ1 1 ng/ml + 1,25(OH)2D3 100 nM, 24 h, Control 261.1, TGFβ 622.8): 134.7; Tgfbr1 VitD + TGF β Avg Signal (TGFβ1 1 ng/ml + 1,25(OH)2D3 100 nM, 24 h, Control 277.1, TGFβ 365.1): 331.9; Mmp7 VitD + TGF β Avg Signal (TGFβ1 1 ng/ml + 1,25(OH)2D3 100 nM, 24 h, Control 277.3, TGFβ 469.3): 164.9; LOC499100 VitD + TGFbeta AVG signal (TGFβ1 1 ng/ml + 1,25(OH)2D3 100 nM, 24 h, Control 281.2, TGFβ 594.6): 154.4; LOC305269 VitD + TGFbeta AVG signal (TGFβ1 1 ng/ml + 1,25(OH)2D3 100 nM, 24 h, Control 288.8, TGFβ 687.8): 170.6; Tgfbr2 VitD + TGF β Avg Signal (TGFβ1 1 ng/ml + 1,25(OH)2D3 100 nM, 24 h, Control 289.0, TGFβ 347.6): 358.9; Stab1_predict VitD + TGFbeta AVG signal (TGFβ1 1 ng/ml + 1,25(OH)2D3 100 nM, 24 h, Control 303.7, TGFβ 1141.2): 204.7; Mmp19 VitD + TGF β Avg Signal (TGFβ1 1 ng/ml + 1,25(OH)2D3 100 nM, 24 h, Control 319.6, TGFβ 516.3): 308.7; Cdh1 VitD + TGFbeta AVG signal (TGFβ1 1 ng/ml + 1,25(OH)2D3 100 nM, 24 h, Control 337.9, TGFβ 553.9): 126.8; Dcir2 VitD + TGFbeta AVG signal (TGFβ1 1 ng/ml + 1,25(OH)2D3 100 nM, 24 h, Control 426.1, TGFβ 842.9): 184.9; Cysltr1 VitD + TGFbeta AVG signal (TGFβ1 1 ng/ml + 1,25(OH)2D3 100 nM, 24 h, Control 429.3, TGFβ 801.8): 183.5; LOC501570 VitD + TGFbeta AVG signal (TGFβ1 1 ng/ml + 1,25(OH)2D3 100 nM, 24 h, Control 429.6, TGFβ 887.6): 192.5; Tmem26_pred VitD + TGFbeta AVG signal (TGFβ1 1 ng/ml + 1,25(OH)2D3 100 nM, 24 h, Control 457.8, TGFβ 912.3): 237.3; Pirb VitD + TGFbeta AVG signal (TGFβ1 1 ng/ml + 1,25(OH)2D3 100 nM, 24 h, Control 462.9, TGFβ 913.7): 171.1; LOC366608 VitD + TGFbeta AVG signal (TGFβ1 1 ng/ml + 1,25(OH)2D3 100 nM, 24 h, Control 469.9, TGFβ 892.8): 203.6; Col1a1 VitD + TGF β Avg Signal (TGFβ1 1 ng/ml + 1,25(OH)2D3 100 nM, 24 h, Control 474.2, TGFβ 1429.1): 557.9; Loxl2 VitD + TGF β Avg Signal (TGFβ1 1 ng/ml + 1,25(OH)2D3 100 nM, 24 h, Control 495.5, TGFβ 966.5): 597.0; Timp2 VitD + TGF β Avg Signal (TGFβ1 1 ng/ml + 1,25(OH)2D3 100 nM, 24 h, Control 500.7, TGFβ 913.0): 751.7; Col3a1 VitD + TGF β Avg Signal (TGFβ1 1 ng/ml + 1,25(OH)2D3 100 nM, 24 h, Control 513.9, TGFβ 965.1): 287.6; Col6a3 VitD + TGF β Avg Signal (TGFβ1 1 ng/ml + 1,25(OH)2D3 100 nM, 24 h, Control 526.5, TGFβ 848.2): 442.6; Loxl1 VitD + TGF β Avg Signal (TGFβ1 1 ng/ml + 1,25(OH)2D3 100 nM, 24 h, Control 537.2, TGFβ 1045.1): 560.1; Ly49si2 VitD + TGFbeta AVG signal (TGFβ1 1 ng/ml + 1,25(OH)2D3 100 nM, 24 h, Control 538.9, TGFβ 1177): 256; LOC361699 VitD + TGFbeta AVG signal (TGFβ1 1 ng/ml + 1,25(OH)2D3 100 nM, 24 h, Control 557.1, TGFβ 1013.7): 263.7; Mmp10 VitD + TGF β Avg Signal (TGFβ1 1 ng/ml + 1,25(OH)2D3 100 nM, 24 h, Control 561.7, TGFβ 1042.3): 764.6; Col8a1 VitD + TGF β Avg Signal (TGFβ1 1 ng/ml + 1,25(OH)2D3 100 nM, 24 h, Control 574.2, TGFβ 1285.9): 773.5; Ccl12_predicte VitD + TGFbeta AVG signal (TGFβ1 1 ng/ml + 1,25(OH)2D3 100 nM, 24 h, Control 597, TGFβ 1047.9): 191.1; Col5a1 VitD + TGF β Avg Signal (TGFβ1 1 ng/ml + 1,25(OH)2D3 100 nM, 24 h, Control 611.1, TGFβ 1418.9): 673.0; LOC304349 VitD + TGFbeta AVG signal (TGFβ1 1 ng/ml + 1,25(OH)2D3 100 nM, 24 h, Control 664, TGFβ 1503.8): 211.1; Tgfb2 VitD + TGF β Avg Signal (TGFβ1 1 ng/ml + 1,25(OH)2D3 100 nM, 24 h, Control 814.7, TGFβ 1308.4): 388.0; LOC498751 VitD + TGFbeta AVG signal (TGFβ1 1 ng/ml + 1,25(OH)2D3 100 nM, 24 h, Control 827.8, TGFβ 2611.8): 516.6; Emr1 VitD + TGFbeta AVG signal (TGFβ1 1 ng/ml + 1,25(OH)2D3 100 nM, 24 h, Control 831.7, TGFβ 1893.5): 319.1; LOC502904 VitD + TGFbeta AVG signal (TGFβ1 1 ng/ml + 1,25(OH)2D3 100 nM, 24 h, Control 858.7, TGFβ 1425.7): 213.6; Itga5 VitD + TGF β Avg Signal (TGFβ1 1 ng/ml + 1,25(OH)2D3 100 nM, 24 h, Control 880.0, TGFβ 1227.3): 1158.1; Cacnb3 VitD + TGFbeta AVG signal (TGFβ1 1 ng/ml + 1,25(OH)2D3 100 nM, 24 h, Control 906.9, TGFβ 2511.6): 415.9; Bmp2 VitD + TGFbeta AVG signal (TGFβ1 1 ng/ml + 1,25(OH)2D3 100 nM, 24 h, Control 954.6, TGFβ 1628.6, listed as VitD): 305; Gas7 VitD + TGFbeta AVG signal (TGFβ1 1 ng/ml + 1,25(OH)2D3 100 nM, 24 h, Control 1039.2, TGFβ 4083.5): 832.8; Slamf9_predic VitD + TGFbeta AVG signal (TGFβ1 1 ng/ml + 1,25(OH)2D3 100 nM, 24 h, Control 1044.7, TGFβ 1762.9): 417.9; Itga4 VitD + TGF β Avg Signal (TGFβ1 1 ng/ml + 1,25(OH)2D3 100 nM, 24 h, Control 1128.4, TGFβ 1464.4): 380.6; LOC498741 VitD + TGFbeta AVG signal (TGFβ1 1 ng/ml + 1,25(OH)2D3 100 nM, 24 h, Control 1156.2, TGFβ 1908.8): 314.1; Hod VitD + TGFbeta AVG signal (TGFβ1 1 ng/ml + 1,25(OH)2D3 100 nM, 24 h, Control 1297, TGFβ 2520.2): 495.9; LOC502907 VitD + TGFbeta AVG signal (TGFβ1 1 ng/ml + 1,25(OH)2D3 100 nM, 24 h, Control 1399.7, TGFβ 2318.7): 241.9; Ptprc VitD + TGFbeta AVG signal (TGFβ1 1 ng/ml + 1,25(OH)2D3 100 nM, 24 h, Control 1582.3, TGFβ 2387): 569.1; Itgam VitD + TGF β Avg Signal (TGFβ1 1 ng/ml + 1,25(OH)2D3 100 nM, 24 h, Control 1689.7, TGFβ 2297.0): 658.0; Col4a1 VitD + TGF β Avg Signal (TGFβ1 1 ng/ml + 1,25(OH)2D3 100 nM, 24 h, Control 1708.1, TGFβ 2261.0): 1315.2; Chst1_predict VitD + TGFbeta AVG signal (TGFβ1 1 ng/ml + 1,25(OH)2D3 100 nM, 24 h, Control 1813.1, TGFβ 4284.5): 337.6; Dsipi VitD + TGFbeta AVG signal (TGFβ1 1 ng/ml + 1,25(OH)2D3 100 nM, 24 h, Control 1943.2, TGFβ 4575.5): 1152; Ccr5 VitD + TGFbeta AVG signal (TGFβ1 1 ng/ml + 1,25(OH)2D3 100 nM, 24 h, Control 2069.5, TGFβ 4680.9): 362.3; Itgav VitD + TGF β Avg Signal (TGFβ1 1 ng/ml + 1,25(OH)2D3 100 nM, 24 h, Control 2145.1, TGFβ 4760.5): 2417.2; Mmp9 VitD + TGF β Avg Signal (TGFβ1 1 ng/ml + 1,25(OH)2D3 100 nM, 24 h, Control 2153.3, TGFβ 4197.3): 2676.4; Col5a2 VitD + TGF β Avg Signal (TGFβ1 1 ng/ml + 1,25(OH)2D3 100 nM, 24 h, Control 2181.0, TGFβ 3452.2): 1696.8; Lox VitD + TGF β Avg Signal (TGFβ1 1 ng/ml + 1,25(OH)2D3 100 nM, 24 h, Control 2260.8, TGFβ 7481.1): 4219.9; LOC499356 VitD + TGFbeta AVG signal (TGFβ1 1 ng/ml + 1,25(OH)2D3 100 nM, 24 h, Control 2562.8, TGFβ 3888.4): 352.7; Fchsd2_predic VitD + TGFbeta AVG signal (TGFβ1 1 ng/ml + 1,25(OH)2D3 100 nM, 24 h, Control 2632.5, TGFβ 7594.5): 1565; Tgfb1 VitD + TGF β Avg Signal (TGFβ1 1 ng/ml + 1,25(OH)2D3 100 nM, 24 h, Control 2922.5, TGFβ 5480.4): 4391.0; Ms4a4a_predi VitD + TGFbeta AVG signal (TGFβ1 1 ng/ml + 1,25(OH)2D3 100 nM, 24 h, Control 3327, TGFβ 14356): 810.7; Pcsk1 VitD + TGFbeta AVG signal (TGFβ1 1 ng/ml + 1,25(OH)2D3 100 nM, 24 h, Control 3330.8, TGFβ 6754.6): 912.4; Ms4a6a_predi VitD + TGFbeta AVG signal (TGFβ1 1 ng/ml + 1,25(OH)2D3 100 nM, 24 h, Control 3823.9, TGFβ 7658.8): 1696
